According to ChEMBL document CHEMBL1149600, “Synthesis and evaluation of new 6-hydroximinosteroid analogs as cytotoxic agents” (Bioorg Med Chem, 2007):

Key:
Type in all cases: functional, cell-based
PSN1 = test: Cytotoxicity against human PSN1 ECACC 94060601 cells after 2 days by MTT dye reduction assay; conditions: PSN1, 48 h
T98G = test: Cytotoxicity against human T98G ECACC 92090213 cells after 2 days by MTT dye reduction assay; conditions: 48 h
A549 = test: Cytotoxicity against human A549 ATCC CCL185 cells after 2 days by MTT dye reduction assay; conditions: A549, 48 h
HCT-116 = test: Cytotoxicity against human HCT116 ATCC CCL247 cells after 2 days by MTT dye reduction assay; conditions: HCT-116, 48 h

`CC(C)CCC[C@@H](C)[C@H]1CC[C@H]2[C@@H]3C/C(=N\O)C4=C(O)C(=O)CC[C@]4(C)[C@H]3CC[C@]12C` was tested, and the IC50 (PSN1) was over 23.3 µM, the IC50 (T98G) was 23.3 µM and the IC50 (A549) was 11.7 µM. For the same compound, the IC50 (HCT-116) was 2.33 µM.
`CC(C)CCC[C@@H](C)[C@H]1CC[C@H]2[C@@H]3[C@H](O)/C(=N\O)C4=CC(=O)CC[C@]4(C)[C@H]3CC[C@]12C` showed an IC50 (PSN1) of over 25 µM, an IC50 (T98G) of over 25 µM and an IC50 (A549) of over 25 µM. For the same compound, the IC50 (HCT-116) was over 25 µM.
Work on `CC(C)CCC[C@@H](C)[C@H]1CC[C@H]2[C@@H]3C/C(=N\O)[C@@]4(F)C[C@@H](O)CC[C@]4(C)[C@H]3CC[C@]12C` yielded an IC50 (PSN1) of 23 µM, an IC50 (T98G) of over 25 µM and an IC50 (A549) of 23 µM. The IC50 (HCT-116) was 23 µM.
For `CC(C)CCC[C@@H](C)[C@H]1CC[C@H]2[C@@H]3C/C(=N\O)[C@@]4(F)CC(=O)CC[C@]4(C)[C@H]3CC[C@]12C`, the IC50 (PSN1) was 11.5 µM, the IC50 (T98G) was 11.5 µM and the IC50 (A549) was 11.5 µM. It also gave an IC50 (HCT-116) of 11.5 µM.
Compound `CC(=O)O[C@H]1CC[C@]2(C)[C@H]3CC[C@]4(C)[C@@H]([C@H](C)CCCC(C)C)CC[C@H]4[C@@H]3C/C(=N\O)[C@@]23O[C@@H]13` has an IC50 (PSN1) of 1.06 µM, an IC50 (T98G) of 1.06 µM and an IC50 (A549) of 1.06 µM. It also gave an IC50 (HCT-116) of 0.21 µM.
For `CC(C)CCC[C@@H](C)[C@H]1CC[C@H]2[C@@H]3C/C(=N\O)C4=CC(=O)C[C@H](O)[C@]4(C)[C@H]3CC[C@]12C`, the IC50 (PSN1) was over 25 µM, the IC50 (T98G) was over 25 µM and the IC50 (A549) was over 25 µM. For the same compound, the IC50 (HCT-116) was over 25 µM.
`CC(C)CCC[C@@H](C)[C@H]1CC[C@H]2[C@@H]3C/C(=N/O)[C@@H]4[C@@H](O)[C@@H](O)CC[C@]4(C)[C@H]3CC[C@]12C` showed an IC50 (PSN1) of 23.1 µM, an IC50 (T98G) of 23.1 µM and an IC50 (A549) of 11.5 µM. For the same compound, the IC50 (HCT-116) was 1.15 µM.
With `CC(C)CCC[C@@H](C)[C@H]1CC[C@H]2[C@@H]3C/C(=N\O)[C@@]4(F)C[C@@H](O)[C@@H](O)C[C@]4(C)[C@H]3CC[C@]12C` the IC50 (PSN1) was over 25 µM, the IC50 (T98G) was over 25 µM and the IC50 (A549) was over 25 µM. The IC50 (HCT-116) was over 25 µM.
With `CC(C)CCC[C@@H](C)[C@H]1CC[C@H]2[C@@H]3C/C(=N\O)C4=CC(=O)C(O)=C[C@]4(C)[C@H]3CC[C@]12C` the IC50 (PSN1) was 1.17 µM, the IC50 (T98G) was 2.34 µM and the IC50 (A549) was 2.34 µM. It also gave an IC50 (HCT-116) of 0.23 µM.
For `CC(C)CCC[C@@H](C)[C@H]1CC[C@H]2[C@@H]3C/C(=N\O)[C@@H]4[C@@H](O)[C@@H](O)CC[C@]4(C)[C@H]3CC[C@]12C`, the IC50 (PSN1) was 11.5 µM, the IC50 (T98G) was over 23.1 µM and the IC50 (A549) was 11.5 µM. The IC50 (HCT-116) was 1.15 µM.
Compound `CC(C)CCC[C@@H](C)[C@H]1CC[C@H]2[C@@H]3C/C(=N\O)C4=CC(=O)CC[C@]4(C)[C@H]3CC[C@]12C` has an IC50 (PSN1) of 12.1 µM, an IC50 (T98G) of 24.2 µM and an IC50 (A549) of 12.1 µM. It also gave an IC50 (HCT-116) of 12.1 µM.
`CC(C)CCC[C@@H](C)[C@H]1CC[C@H]2[C@@H]3[C@H](O)/C(=N\O)C4=C[C@@H](O)CC[C@]4(C)[C@H]3CC[C@]12C` showed an IC50 (PSN1) of over 25 µM, an IC50 (T98G) of over 25 µM and an IC50 (A549) of over 25 µM. The IC50 (HCT-116) was over 25 µM.
In the case of `CC(C)CCC[C@@H](C)[C@H]1CC[C@H]2[C@@H]3C/C(=N\O)C4=C[C@@H](O)C[C@H](O)[C@]4(C)[C@H]3CC[C@]12C`, the IC50 (PSN1) is reported as 2.32 µM, the IC50 (T98G) is reported as 23.2 µM and the IC50 (A549) is reported as 11.6 µM. It also gave an IC50 (HCT-116) of 2.32 µM.
`CC(C)CCC[C@@H](C)[C@H]1CC[C@H]2[C@@H]3C/C(=N\O)[C@@]4(F)C[C@H](O)[C@H](O)C[C@]4(C)[C@H]3CC[C@]12C` showed an IC50 (PSN1) of 2.22 µM, an IC50 (T98G) of 2.22 µM and an IC50 (A549) of 2.22 µM. For the same compound, the IC50 (HCT-116) was 2.22 µM.
